Measured values: ChEMBL document CHEMBL3352081, “Wnt/β-Catenin Signaling Pathway Inhibitors: A Promising Cancer Therapy” (ACS Med Chem Lett, 2014)

System: HT-29
Experiment: Inhibition of Wnt pathway in human HT29 cells after 24 hrs by TCF-driven luciferase reporter gene assay
Assay type: cell-based
Conditions: HT-29, 24 h

Compound | IC50 [nM]
c1ccc(N2C[C@@H]3C[C@H]2CN3c2ncnc3nsnc23)nc1 | < 1000
c1ccc(N2C[C@@H]3C[C@H]2CN3c2ccnc3nsnc23)cc1 | < 50

Further lines, results first:

IC50 [nM] | Compound
< 50 | O=C(Nc1ccc(C(F)(F)F)cn1)C1CCN(c2ccnc3nsnc23)CC1
< 500 | O=C(Nc1cc2ccccc2cn1)C1CCN(c2ccnc3nsnc23)CC1
< 5000 | O=C(Nc1ccccc1F)C1CCN(c2ccnc3nsnc23)CC1
< 100 | Cc1ccccc1CNC(=O)C1CCN(c2ccnc3nsnc23)CC1
